Measured values as given in the supplement of paper PMC10307832.

Key:
Test in all cases: relative viability (nuclei count vs DMSO), 5 days (fraction); higher = more cells survive
[1] = tested on: H3255
Procedure, shortened: (§1)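 Lung cancer cell lines, seeded in 1536-well plates, were treated the following day by pin tool with a single drug or with five library-drug doses (not always all listed) in √10 steps on top of a fixed anchor-drug dose. Cells were fixed and nuclei stained in one step after 5 days, and nuclei were counted. Relative viability is the nuclei count for treated wells divided by that for vehicle wells, reported as medians of duplicate plates.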

[2] = tested on: COR-L 105
Procedure, shortened: as §1

[3] = tested on: LOU-NH91
Procedure, shortened: as §1

[4] = tested on: NCI-H1944
Procedure, shortened: as §1

[5] = tested on: SK-MES-1
Procedure, shortened: as §1

[6] = tested on: NCI-H23
Procedure, shortened: as §1

[7] = tested on: NCI-H520
Procedure, shortened: as §1

[8] = tested on: ChaGo-K-1
Procedure, shortened: as §1

[9] = tested on: SW 900
Procedure, shortened: as §1

[10] = tested on: PC-3 [JPC-3]
Procedure, shortened: as §1

[11] = tested on: NCI-H1755
Procedure, shortened: as §1

[12] = tested on: A-427
Procedure, shortened: as §1

[13] = tested on: EKVX
Procedure, shortened: as §1

[14] = tested on: NCI-H2170
Procedure, shortened: as §1

[15] = tested on: NCI-H1792
Procedure, shortened: as §1

[16] = tested on: NCI-H1975
Procedure, shortened: as §1

[17] = tested on: EMC-BAC-2
Procedure, shortened: as §1

[18] = tested on: NCI-H596
Procedure, shortened: as §1

[19] = tested on: HCC-366
Procedure, shortened: as §1

[20] = tested on: NCI-H1666
Procedure, shortened: as §1

[21] = tested on: NCI-H1734
Procedure, shortened: as §1

[22] = tested on: NCI-H441
Procedure, shortened: as §1

[23] = tested on: LK-2
Procedure, shortened: as §1

## C[C@@H]1CN(CC(=O)Nc2ccc3c(c2)Cc2cccc(-c4cc(=O)cc(N5CCOCC5)o4)c2S3)C[C@H](C)O1 + CC(=O)Nc1cccc(-n2c(=O)n(C3CC3)c(=O)c3c(Nc4ccc(I)cc4F)n(C)c(=O)c(C)c32)c1 [Trametinib] (partner 0.02 µM)
[1]; first compound 0.04 µM
  relative viability: 0.584
[1]; first compound 0.1265 µM
  relative viability: 0.601
[1]; first compound 0.4 µM
  relative viability: 0.473
[1]; first compound 4 µM
  relative viability: 0.437
[2]; first compound 0.04 µM
  relative viability: 0.458
[2]; first compound 0.1265 µM
  relative viability: 0.412
[2]; first compound 0.4 µM
  relative viability: 0.416
[2]; first compound 4 µM
  relative viability: 0.428
[3]; first compound 0.04 µM
  relative viability: 0.812
[3]; first compound 0.1265 µM
  relative viability: 0.788
[3]; first compound 0.4 µM
  relative viability: 0.717
[3]; first compound 4 µM
  relative viability: 0.715
[4]; first compound 0.1265 µM
  relative viability: 0.412
[4]; first compound 0.4 µM
  relative viability: 0.4
[4]; first compound 4 µM
  relative viability: 0.425
[5]; first compound 0.04 µM
  relative viability: 0.652
[5]; first compound 0.1265 µM
  relative viability: 0.53
[5]; first compound 0.4 µM
  relative viability: 0.463
[5]; first compound 4 µM
  relative viability: 0.405
[6]; first compound 0.04 µM
  relative viability: 0.356
[6]; first compound 0.1265 µM
  relative viability: 0.348
[6]; first compound 0.4 µM
  relative viability: 0.336
[6]; first compound 4 µM
  relative viability: 0.286
[7]; first compound 0.04 µM
  relative viability: 0.675
[7]; first compound 0.1265 µM
  relative viability: 0.629
[7]; first compound 0.4 µM
  relative viability: 0.626
[7]; first compound 4 µM
  relative viability: 0.556
[8]; first compound 0.04 µM
  relative viability: 0.868
[8]; first compound 0.1265 µM
  relative viability: 0.859
[8]; first compound 0.4 µM
  relative viability: 0.879
[8]; first compound 4 µM
  relative viability: 0.871
[9]; first compound 0.04 µM
  relative viability: 0.894
[9]; first compound 0.1265 µM
  relative viability: 0.696
[9]; first compound 0.4 µM
  relative viability: 0.892
[9]; first compound 4 µM
  relative viability: 0.572
[10]; first compound 0.04 µM
  relative viability: 0.808
[10]; first compound 0.1265 µM
  relative viability: 0.665
[10]; first compound 0.4 µM
  relative viability: 0.666
[10]; first compound 4 µM
  relative viability: 0.634
[11]; first compound 0.04 µM
  relative viability: 0.779
[11]; first compound 0.1265 µM
  relative viability: 0.737
[11]; first compound 0.4 µM
  relative viability: 0.716
[11]; first compound 4 µM
  relative viability: 0.663
[12]; first compound 0.04 µM
  relative viability: 0.682
[12]; first compound 0.1265 µM
  relative viability: 0.755
[12]; first compound 0.4 µM
  relative viability: 0.678
[12]; first compound 4 µM
  relative viability: 0.583
[13]; first compound 0.04 µM
  relative viability: 0.364
[13]; first compound 0.1265 µM
  relative viability: 0.369
[13]; first compound 0.4 µM
  relative viability: 0.349
[13]; first compound 4 µM
  relative viability: 0.294
[14]; first compound 0.04 µM
  relative viability: 1.04
[14]; first compound 0.1265 µM
  relative viability: 0.931
[14]; first compound 0.4 µM
  relative viability: 0.877
[14]; first compound 4 µM
  relative viability: 0.847
[15]; first compound 0.04 µM
  relative viability: 0.422
[15]; first compound 0.1265 µM
  relative viability: 0.444
[15]; first compound 0.4 µM
  relative viability: 0.295
[15]; first compound 4 µM
  relative viability: 0.385
[16]; first compound 0.04 µM
  relative viability: 0.382
[16]; first compound 0.1265 µM
  relative viability: 0.377
[16]; first compound 0.4 µM
  relative viability: 0.37
[16]; first compound 4 µM
  relative viability: 0.33
[17]; first compound 0.04 µM
  relative viability: 0.891
[17]; first compound 0.1265 µM
  relative viability: 0.892
[17]; first compound 0.4 µM
  relative viability: 0.782
[17]; first compound 4 µM
  relative viability: 0.688
[18]; first compound 0.04 µM
  relative viability: 0.771
[18]; first compound 0.1265 µM
  relative viability: 0.757
[18]; first compound 0.4 µM
  relative viability: 0.725
[18]; first compound 4 µM
  relative viability: 0.768
[19]; first compound 0.04 µM
  relative viability: 0.43
[19]; first compound 0.1265 µM
  relative viability: 0.3
[19]; first compound 0.4 µM
  relative viability: 0.244
[19]; first compound 4 µM
  relative viability: 0.181
[20]; first compound 0.04 µM
  relative viability: 0.881
[20]; first compound 0.1265 µM
  relative viability: 0.924
[20]; first compound 0.4 µM
  relative viability: 0.91
[20]; first compound 4 µM
  relative viability: 0.738
[21]; first compound 0.04 µM
  relative viability: 0.698
[21]; first compound 0.1265 µM
  relative viability: 0.756
[21]; first compound 0.4 µM
  relative viability: 0.632
[21]; first compound 4 µM
  relative viability: 0.788
[22]; first compound 0.04 µM
  relative viability: 0.539
[22]; first compound 0.1265 µM
  relative viability: 0.481
[22]; first compound 0.4 µM
  relative viability: 0.305
[22]; first compound 4 µM
  relative viability: 0.368
[23]; first compound 0.04 µM
  relative viability: 0.874
[23]; first compound 0.1265 µM
  relative viability: 0.756
[23]; first compound 0.4 µM
  relative viability: 0.709
[23]; first compound 4 µM
  relative viability: 0.912
